According to patent US9567623B2, “Coelenterazine analogs” (JNC CORPORATION, priority 2013, dated 2017):

Assays:
[1] = target: T1, nanoKAZ (mutated catalytic 19 kDa domain of Oplophorus luciferase) (Oplophorus gracilirostris, UniProt Q9GV45, A31E/A60N/A81I/F95D/I117V/K70R/L54V/L99Q/M102K/N193R/P142E/Q151K/Q38R/Q45L/V71I/Y165I); assay: Luminescence activity of secreted codon-optimized nanoKAZ domain protein with coelenterazine analogs as substrates; type: biochemical; conditions: for Luminescence pattern (decay): FIG. 3, recombinant nanoKAZ; for Relative maximum luminescence intensity (Imax) / Relative amount of integrated luminescence intensity (1 min.): relative to coelenterazine = 1.0; for Relative maximum luminescence intensity (Imax): 1 μg substrate, 50 mM Tris-HCl (pH 7.6)-10 mM EDTA, 60 seconds; for Relative amount of integrated luminescence intensity (1 min.): integrated for 60 seconds
T1 construct: secretory signal peptide of Gaussia luciferase (GLsp) (N, cleaved yes); made in house; host or cells: CHO-K1 transiently transfected with pcDNA3-GLsp-nanoKAZ; unpurified culture medium used as the enzyme solution
Protocol: The Chinese hamster ovary-derived cell line CHO-K1 was cultured in Ham's F-12 medium (manufactured by Wako Pure Chemical Industries, Ltd.) containing 10% (v/v) calf fetal serum (manufactured by Biowest Inc.), and cultured in DMEM (manufactured by Wako Pure Chemical Industries, Ltd.) containing 10% (v/v) calf fetal serum (manufactured by Biowest Inc.). The respective cells were seeded in a 6-well culture plate (n=2) with 1×10^5 cells/well/2 mL medium, and cultured in an incubator at 37° C. in 5% CO2, respectively. After 24 hours, the purified pcDNA3-GLsp-nanoKAZ plasmid was transfected into CHO-K1 cells using a FuGene HD Transfection Kit (manufactured by Promega Corp.), which was used in the subsequent experiment. Specifically, 1 μg of the pcDNA3-GLsp-nanoKAZ expression vector and 3 μL of FuGene HD were added to 100 μL of medium, which was allowed to stand at room temperature for 15 minutes. Then 100 μL of the DNA-FuGene complex solution was added to the cells in the 6 wells. After incubation for 48 hours, the culture medium was recovered and used as the secreted nanoKAZ enzyme solution for assay.
The enzyme solution, 5 μL, for assay obtained in EXAMPLE 4 (2) was added to 100 pt of 50 mM Tris-HCl (pH 7.6)-10 mM EDTA (Wako Pure Chemical Industries) containing 1 μg each of various coelenterazine analogs to initiate the luminescence reaction. The luminescence activity was determined by a luminometer (AB2200, manufactured by Atto Company) for 60 seconds and expressed by the maximum luminescence intensity (Imax) and the relative light units (du) of the lumimescence intensity integrated for 60 seconds.
The coelenterazine analogs used for substrate specificity analysis except for the analog described in EXAMPLE 1 were synthesized by the methods as described in the journals below, respectively. Specifically, bis-coelenterazine was synthesized by the method described in Nakamura et al. (1997) Tetrahedron Lett. 38: 6405-6406; Furimazine (Compound No. 3939 referred to in the journal) and C6d-coelenterazine (Compound No. 3840 referred to in the journal) by the method described in Hall et al. (2012) ACS Chem. Biol. […]; and the C2-coelenterazine analogs by the method described in Inouye et al (2010) Anal. Biochem. 407: 247-252. The enzyme solution of the culture medium in which nanoKAZ was secreted by the method as described in EXAMPLE 4 (2) was used for determining the luminescence activity with coelenterazine or its analogs. […] As a result, the luminescence substrates which can markedly improve the luminescence intensity and the amount of the integrated luminescence intensity to compare with furimazine are bis-coelenterazine and C6d-f-coelenterazine, showing a continuous luminescence without a decay of the luminescence intensity.

[2] = target: T2, Catalytic 19 kDa domain of Oplophorus luciferase (Oplophorus gracilirostris, UniProt Q9GV45); assay: Substrate specificity of various luciferases: catalytic 19 kDa domain of Oplophorus luciferase; type: biochemical, Oplophorus grachlorostris; conditions: for Maximum Luminescence Intensity (Imax, %) / Relative Amount of Integrated Luminescence Intensity (1 min, %): relative to coelenterazine = 100
T2 construct: The catalytic 19 kDa domain of Oplophorus luciferase was produced by the method described in; made in house
Protocol: (§1) The preparation of various luciferases and the determination of their luminescence activities were carried out in accordance with the methods as previously reported. The catalytic 19 kDa domain of Oplophorus luciferase was produced by the method described in Inouye S. & Sasaki S. (2007) Protein Express. Purif. 56, 261-268, Gaussia luciferase by the method described in Inouye S & Sahara Y. (2008) Biochem. Biophys. Res. Commun. 368, 600-605, Renilla luciferase and Renilla luciferase 547 by the method described in Inouye S. et al. (2013) Protein Express. Purif. 88, 150-156, and aequorin by the method described in Inouye S et al. (2010) Anal. Biochem. 407, 247-252, respectively, and used.

Gaussia luciferase = assay: Substrate specificity of various luciferases: Gaussia luciferase; type: biochemical; conditions: relative to coelenterazine = 100
Protocol: as §1

Renilla luciferase 547 = assay: Substrate specificity of various luciferases: Renilla luciferase 547; type: biochemical; conditions: relative to coelenterazine = 100
Protocol: as §1

Renilla luciferase = target: T3, Renilla luciferase (Renilla reniformis, UniProt P27652); assay: Substrate specificity of various luciferases: Renilla luciferase; type: biochemical; conditions: relative to coelenterazine = 100
T3 construct: made in house
T3 sequence (P27652 1-311): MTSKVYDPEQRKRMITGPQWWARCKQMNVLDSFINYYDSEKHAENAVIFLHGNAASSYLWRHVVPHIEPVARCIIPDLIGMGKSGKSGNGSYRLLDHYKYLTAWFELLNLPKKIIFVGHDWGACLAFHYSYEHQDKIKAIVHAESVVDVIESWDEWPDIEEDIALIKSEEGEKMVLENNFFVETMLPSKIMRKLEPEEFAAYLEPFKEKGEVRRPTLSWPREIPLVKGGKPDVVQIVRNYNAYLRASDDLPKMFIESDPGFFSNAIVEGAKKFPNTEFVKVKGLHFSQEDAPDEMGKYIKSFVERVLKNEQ
Protocol: as §1

[3] = Stability of coelenterazine analogs in aqueous solution (HPLC); type: physicochemical; conditions: 30 mM Tris-HCl (pH 7.6)
Protocol: The stability of coelenterazine analogs in an aqueous solution was examined by dissolving 10 μg of coelenterazine analogs in 0.5 mL of 30 mM Tris-HCl (pH 7.6), allowing the solution to stand at 37° C. for 22 hours, and then the degradation of coelenterazine analogs was determined by HPLC analysis. The HPLC analysis was performed by the modified method as described in Inouye S. et al. (2013) Protein Express. Purif. 88, 150-156.

Aequorin = target: T4, Aequorin (Aequorea victoria, UniProt P07164); type: biochemical, jellyfish; conditions: relative to coelenterazine = 100
T4 construct: made in house
Protocol: as §1

[4] = incubation time at 37° C. 0 hour
[5] = incubation time at 37° C. 22 hours

T1 sequence (Q9GV45 other isoform, or with tags, fused parts or gaps with the stated changes): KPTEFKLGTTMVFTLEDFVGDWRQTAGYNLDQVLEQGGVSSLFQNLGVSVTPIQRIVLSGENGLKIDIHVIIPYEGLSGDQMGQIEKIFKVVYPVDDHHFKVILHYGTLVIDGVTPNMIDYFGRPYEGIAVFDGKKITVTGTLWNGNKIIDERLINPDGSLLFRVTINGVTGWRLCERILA
T4 sequence (P07164 8-196): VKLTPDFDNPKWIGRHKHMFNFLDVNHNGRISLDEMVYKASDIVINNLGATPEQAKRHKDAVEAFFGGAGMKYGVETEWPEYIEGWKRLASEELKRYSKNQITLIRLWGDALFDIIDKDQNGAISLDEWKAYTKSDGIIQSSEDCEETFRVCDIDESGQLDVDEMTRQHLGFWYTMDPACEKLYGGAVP
T2 sequence (Q9GV45 28-196): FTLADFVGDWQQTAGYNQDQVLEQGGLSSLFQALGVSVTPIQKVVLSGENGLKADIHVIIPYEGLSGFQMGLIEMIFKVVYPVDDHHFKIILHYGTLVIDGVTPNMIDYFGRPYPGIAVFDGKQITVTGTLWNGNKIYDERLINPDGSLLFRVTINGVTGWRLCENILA

bis-coelenterazine
Luminescence pattern (decay) [1]: did not exhibit a rapid decay | Relative maximum luminescence intensity (Imax) [1]: 10.3 | Relative amount of integrated luminescence intensity (1 min.) [1]: 9.7 | Maximum Luminescence Intensity (Imax, %) [2]: 108% | Relative Amount of Integrated Luminescence Intensity (1 min, %) [2]: (102) % | Maximum Luminescence Intensity (Imax, %) (Gaussia luciferase): 0% | Relative Amount of Integrated Luminescence Intensity (1 min, %) (Gaussia luciferase): (0) % | Maximum Luminescence Intensity (Imax, %) (Renilla luciferase 547): 0.07% | Relative Amount of Integrated Luminescence Intensity (1 min, %) (Renilla luciferase 547): (0.08) % | Maximum Luminescence Intensity (Imax, %) (Renilla luciferase): 0.04% | Relative Amount of Integrated Luminescence Intensity (1 min, %) (Renilla luciferase): (0.03) % | Residual Ratio of Coelenterazine Analog (%) [3, 4]: 100% | Residual Ratio of Coelenterazine Analog (%) [3, 5]: 38% | Maximum Luminescence Intensity (Imax, %) (Aequorin): 0.01% | Relative Amount of Integrated Luminescence Intensity (1 min, %) (Aequorin): (0.01) %

coelenterazine [Coelenterazine (CTZ)]
Relative maximum luminescence intensity (Imax) [1]: 1.0 | Relative amount of integrated luminescence intensity (1 min.) [1]: 1.0 | Maximum Luminescence Intensity (Imax, %) [2]: 100% | Relative Amount of Integrated Luminescence Intensity (1 min, %) [2]: (100) % | Maximum Luminescence Intensity (Imax, %) (Gaussia luciferase): 100% | Relative Amount of Integrated Luminescence Intensity (1 min, %) (Gaussia luciferase): (100) % | Maximum Luminescence Intensity (Imax, %) (Renilla luciferase 547): 100% | Relative Amount of Integrated Luminescence Intensity (1 min, %) (Renilla luciferase 547): (100) % | Maximum Luminescence Intensity (Imax, %) (Renilla luciferase): 100% | Relative Amount of Integrated Luminescence Intensity (1 min, %) (Renilla luciferase): (100) % | Residual Ratio of Coelenterazine Analog (%) [3, 4]: 100% | Residual Ratio of Coelenterazine Analog (%) [3, 5]: 2% | Maximum Luminescence Intensity (Imax, %) (Aequorin): 100% | Relative Amount of Integrated Luminescence Intensity (1 min, %) (Aequorin): (100) %

Oc1ccc(-c2cn3c(O)c(Cc4ccccc4)nc3c(Cc3ccccc3)n2)cc1 [h-Coelenterazine]
Relative maximum luminescence intensity (Imax) [1]: 17.0 | Relative amount of integrated luminescence intensity (1 min.) [1]: 10.1 | Maximum Luminescence Intensity (Imax, %) [2]: 92.6% | Relative Amount of Integrated Luminescence Intensity (1 min, %) [2]: (101) % | Maximum Luminescence Intensity (Imax, %) (Gaussia luciferase): 8.2% | Relative Amount of Integrated Luminescence Intensity (1 min, %) (Gaussia luciferase): (12.1) % | Maximum Luminescence Intensity (Imax, %) (Renilla luciferase 547): 24.5% | Relative Amount of Integrated Luminescence Intensity (1 min, %) (Renilla luciferase 547): (16.4) % | Maximum Luminescence Intensity (Imax, %) (Renilla luciferase): 68.5% | Relative Amount of Integrated Luminescence Intensity (1 min, %) (Renilla luciferase): (73.5) % | Maximum Luminescence Intensity (Imax, %) (Aequorin): 84.0% | Relative Amount of Integrated Luminescence Intensity (1 min, %) (Aequorin): (68.0) %

O=c1c(Cc2ccc(F)cc2)nc2c(Cc3ccccc3)[nH]c(-c3ccc(O)cc3)cn1-2 [f-Coelenterazine]
Relative maximum luminescence intensity (Imax) [1]: 19.5 | Relative amount of integrated luminescence intensity (1 min.) [1]: 11.1 | Maximum Luminescence Intensity (Imax, %) [2]: 78.6% | Relative Amount of Integrated Luminescence Intensity (1 min, %) [2]: (85.7) % | Maximum Luminescence Intensity (Imax, %) (Gaussia luciferase): 5.0% | Relative Amount of Integrated Luminescence Intensity (1 min, %) (Gaussia luciferase): (10) % | Maximum Luminescence Intensity (Imax, %) (Renilla luciferase 547): 78.0% | Relative Amount of Integrated Luminescence Intensity (1 min, %) (Renilla luciferase 547): (68.1) % | Maximum Luminescence Intensity (Imax, %) (Renilla luciferase): 65.3% | Relative Amount of Integrated Luminescence Intensity (1 min, %) (Renilla luciferase): (71.4) % | Maximum Luminescence Intensity (Imax, %) (Aequorin): 42.3% | Relative Amount of Integrated Luminescence Intensity (1 min, %) (Aequorin): (59.0) %

C6d-coelenterazine
Relative maximum luminescence intensity (Imax) [1]: 0.8 | Relative amount of integrated luminescence intensity (1 min.) [1]: 0.7 | Maximum Luminescence Intensity (Imax, %) [2]: 9.0% | Relative Amount of Integrated Luminescence Intensity (1 min, %) [2]: (7.7) % | Maximum Luminescence Intensity (Imax, %) (Gaussia luciferase): 0.8% | Relative Amount of Integrated Luminescence Intensity (1 min, %) (Gaussia luciferase): (0.8) % | Maximum Luminescence Intensity (Imax, %) (Renilla luciferase 547): 0.12% | Relative Amount of Integrated Luminescence Intensity (1 min, %) (Renilla luciferase 547): (0.12) % | Maximum Luminescence Intensity (Imax, %) (Renilla luciferase): 0.02% | Relative Amount of Integrated Luminescence Intensity (1 min, %) (Renilla luciferase): (0.02) % | Maximum Luminescence Intensity (Imax, %) (Aequorin): 0.03% | Relative Amount of Integrated Luminescence Intensity (1 min, %) (Aequorin): (0.03) %

O=c1c(Cc2ccco2)nc2c(Cc3ccccc3)[nH]c(-c3ccccc3)cn1-2 [Furimazine]
Luminescence pattern (decay) [1]: did not exhibit a rapid decay | Relative maximum luminescence intensity (Imax) [1]: 5.5 | Relative amount of integrated luminescence intensity (1 min.) [1]: 5.7 | Maximum Luminescence Intensity (Imax, %) [2]: 72.2% | Relative Amount of Integrated Luminescence Intensity (1 min, %) [2]: (65.2) % | Maximum Luminescence Intensity (Imax, %) (Gaussia luciferase): 0% | Relative Amount of Integrated Luminescence Intensity (1 min, %) (Gaussia luciferase): (0) % | Maximum Luminescence Intensity (Imax, %) (Renilla luciferase 547): 0.01% | Relative Amount of Integrated Luminescence Intensity (1 min, %) (Renilla luciferase 547): (0.01) % | Maximum Luminescence Intensity (Imax, %) (Renilla luciferase): 0.01% | Relative Amount of Integrated Luminescence Intensity (1 min, %) (Renilla luciferase): (0.01) % | Residual Ratio of Coelenterazine Analog (%) [3, 4]: 100% | Residual Ratio of Coelenterazine Analog (%) [3, 5]: 3% | Maximum Luminescence Intensity (Imax, %) (Aequorin): 0.02% | Relative Amount of Integrated Luminescence Intensity (1 min, %) (Aequorin): (0.02) %

O=c1c(Cc2ccc(F)cc2)nc2c(Cc3ccccc3)[nH]c(-c3ccccc3)cn1-2 [C6d-f-Coelenterazine, C6d-f-coelenterazine]
Luminescence pattern (decay) [1]: did not exhibit a rapid decay | Relative maximum luminescence intensity (Imax) [1]: 10.1 | Relative amount of integrated luminescence intensity (1 min.) [1]: 10.1 | Suitability as substrate ([2]; in words, from TABLE 2): good substrate | Maximum Luminescence Intensity (Imax, %) [2]: 100% | Relative Amount of Integrated Luminescence Intensity (1 min, %) [2]: (105) % | Maximum Luminescence Intensity (Imax, %) (Gaussia luciferase): 0% | Relative Amount of Integrated Luminescence Intensity (1 min, %) (Gaussia luciferase): (0) % | Maximum Luminescence Intensity (Imax, %) (Renilla luciferase 547): 0.17% | Relative Amount of Integrated Luminescence Intensity (1 min, %) (Renilla luciferase 547): (0.13) % | Maximum Luminescence Intensity (Imax, %) (Renilla luciferase): 0.07% | Relative Amount of Integrated Luminescence Intensity (1 min, %) (Renilla luciferase): (0.01) % | Residual Ratio of Coelenterazine Analog (%) [3, 4]: 100% | Residual Ratio of Coelenterazine Analog (%) [3, 5]: 49% | Maximum Luminescence Intensity (Imax, %) (Aequorin): 0.12% | Relative Amount of Integrated Luminescence Intensity (1 min, %) (Aequorin): (0.19) %
